Results taken from USRE37770E1, “Treatment of skin conditions by use of PPARα activators” (The Regents of the University of California, priority 1997, dated 2002).

Legend:
transglutaminase mRNA = test: Transglutaminase mRNA in keratinocytes by Northern Blot; type: cell-based, Human; details: low calcium (0.03 mM), 24 hours, 10 μM
Protocol: (§1) Human keratinocyte cells were incubated in culture containing calcium at a concentration of 0.03 mM Ca^++ (a level that is too low to induce differentiation). Also included in the culture medium were clofibrate at 400 μM or ETYA at 10 μM and 20 μM, while separate cell cultures were maintained as controls with neither clofibrate nor ETYA. The production of mRNA for both involucrin and transglutaminase was measured at intervals over a 48-hour time period (0, 6, 12, 24, and 48 hours) by Northern Blot analysis. In each case, the lighter bars represent the control cells and the darker bars the cells incubated in the clofibrate-containing medium. The degree of mRNA generated is expressed as a percent of the control at zero hours.
(§2) Human epidermis was isolated from newborn foreskins and keratinocytes were plated in serum-free keratinocyte growth medium (“KGM”; Clonetics, San Diego, Calif. USA), using conventional techniques. Cells were treated with either the test compounds in vehicle or vehicle alone (<0.1% ethanol) for 24 or 48 hours. The test compounds were obtained from Sigma Chemical Co. (St. Louis. Mo. USA) and were stored as 15 mM stock solutions at −20° C. Mevalonate was solubilized in sterile water.
(§3) Total RNA was isolated by using TRIZOL (Sigma Chemical Co.), following the manufacturer's protocol. Ethanol-precipitate RNA pellets were suspended in sterile, diethylpyrocarbonate (DEPC)-treated water, and RNA was quantified by absorbance at 260 nm using the 260/280 nm ratio as an index of purity. RNA (15 μg per sample) was size fractionated through a 1% agarose gel containing 2.2 M formaldehyde. RNA integrity was visualized following acridine orange staining of the gel following electrophoresis. The RNA was transfered to a nylon membrane that was subsequently baked at 80° C. for 2 hours. Blots were hybridized with the appropriate ^32p-labeled probe overnight at 65° C. Washes were then performed in a solution containing 0.1% SSC and 0.1% sodium dedecyl sulfate (SDS) for 20 minutes at room temperature, followed by a 20-minute wash at 65° C. Autoradiography was performed at −70° C. Blots were probed with β-actin to confirm equal loading. Appropriate bands were quantified by densitometry.
(§4) Northern blot analyses were performed on keratinocytes maintained in low calcium (0.03 mM) and incubated for 24 hours in the presence of vehicle alone (<0.1% ethanol) or vehicle containing 25-hydroxycholesterol (10 μM), 22(R)-hydroxycholesterol (10 μM) cholesterol (10 μM), or mevalonate (500 μM) (individually). The mRNA levels of involucrin (“INV”) and transglutaminase (“TG'ase”) are shown in the bar graph of FIG. 14a, the INV indicated by clear bars and the TG'ase by shaded bars, both with error limits shown.

involucrin mRNA = test: Involucrin mRNA in keratinocytes by Northern Blot; type: cell-based, Human; details: low calcium (0.03 mM), 24 hours, 10 μM
Protocol: as §1, §2, §3, §4

[1] = tested on: full-thickness flank skin from the fetal rats; test: Transepidermal water loss (TEWL) of fetal rat skin explants in organ culture (barrier function); type: cell-based, Sprague-Dawley rats; details: for effect on TEWL / barrier function: 50 μM; for EC50: Rattus norvegicus, read-out: concentration of half-maximal effect on barrier development (TEWL); for EC50 / concentration of maximal effect on barrier development (TEWL): dose response, FIGS. 4a-4c
Protocol: Timed pregnant Sprague-Dawley rats (plug date=day 0) were obtained from Simonsen (Gilroy, Calif., USA) and fetuses were delivered prematurely on day 17. Transepidermal water loss (TEWL) was measured in excised full-thickness flank skin from the fetal rats after various times in culture. The skin explants were placed dermis-side down onto collagen membrane inserts (3μ pore size) in medium M-199 (serum-free), and submerged, and the lateral edges and dermal surface were sealed with petrolatum, such that water loss occurred only through the epidermal surface. Explant samples were weighed hourly, at ambient temperature (24±3° C.) and humidity (40±5%), over 6 hours using a Cahn balance (sensitivity 0.001 mg). TEWL levels are reported as milligrams of water lost per square millimeter of epidermal surface per hour. Fatty acids and clofibrate (p-chlorophenoxyisobutyric acid) were added to the medium bound to 0.5% (weight/volume) bovine serum albumin (BSA). Isoprenoids and oxysterols were added in ethanol (≦0.1%) and juvenile hormone III was added as a dimethylsulfoxide (DMSO) solution (≦0.1%). Control explants were incubated in the presence of the appropriate vehicle (≦0.1% DMSO or ethanol, and/or ≦0.5% BSA). Skin explants from gestational day 17 rats were incubated in the presence of either various activators or vehicle, and transepidermal water loss was measured after two days. The activators and the concentrations at which they were used were as follows: […]

[2] = tested on: Skin explants from gestational day 17 rats; test: Light and electron microscopy of fetal rat skin explants (epidermal maturation); type: cell-based; details: 48 hours
Protocol: Samples for light microscopy were fixed in modified Karnovsky's solution, plastic-embedded, and 0.5 μm sections were stained with toluidine. Samples for electron microscopy were minced into 1 mm^3 pieces, fixed in modified Karnovsky's fixative, and processed. Sections were stained with uranyl acetate and lead citrate, post-fixed in ruthenium tetroxide, and examined using a Zeiss 10A electron microscope.
Explants incubated in various media woe examined by light microscopy. The incubation di included control medium (containing no activators) and various media individually containing 300 μM clofibrate, 100 μM juvenile hormone III, 300 μM oleic acid, 30 μM linoleic acid, 50 μM farnesol, and various concentrations of 9-cis-retinoic acid, all-trans-retinoic acid, and 1,25-dihydroxy vitamin D3.
Observations were then made of the ultrastructural maturation of the outer epidermis in explants that had been incubated in the various media and then post-fixed in ruthenium tetroxide. Media identical to those of the preceding paragraph were used, excluding the retinoic acid-containing and 1,25-dihydroxy vitamin D3-containing media.

[3] = tested on: Normal human keratinocytes; test: Cornified envelope formation (35S incorporation) in keratinocytes; type: cell-based; details: 10 μM, 0.03 mM calcium, 48-hour
involucrin protein = test: Involucrin protein level in keratinocytes by Western Blot; type: cell-based, Human; details: 0 to 15 μM, 0.03 mM Ca++, 24 hours
Protocol: Measurements of the level of the involucrin protein itself were performed in the culture medium by Western Blot. Various incubations were performed, in media containing clofibrate at concentrations ranging from 0 (vehicle only) to 400 μM and calcium ion at both 0.03 mM and 1.2 mM. The results are shown in FIG. 9a for tests with calcium ion at 0.03 mM, and in FIG. 9b for tests with calcium ion at 1.2 mM. In these figures, the protein contents are expressed as percents of the respective measurements taken from media incubated for the same period of time but in the absence of clofibrate.
The procedures of Example 8 were followed, and measurements were taken on the involucrin protein levels from cells incubated at various concentrations of farnesol and juvenile hormone III ranging from 0 (vehicle only) to 15 μM, in media containing 0.03 mM and 1.2 mM calcium ion, for 24 hours. The results are shown in FIG. 10 for farnesol and FIG. 11 for juvenile hormone III, in 0.03 mM Ca^++.
Protein concentration was assessed by protein electrophoresis and Western blotting. Cells were lysed is 2% SDS and the lysate sonicated. Protein determinations were made by use of a Bicinchoninic add protein assay (Pierce Chemical Company, Rockford, Ill. USA). Following protein determination, equal amounts at protein (50 μg) were separated by electrophoresis an 7.5% polyacrylamide gels and electroblotted onto polyvinylidene […] membranes (0.2-μ, obtained from Bio-Rad Laboratories Hercules, Calif., USA). Involucrin protein was detected by incubation over-night at 4° C. C. with a polyclonal rabbit anti-human involucrin antibody (1:1000 dilution). The involucrin-specific bands on the autoradiograms were quantitated by densitometry by densitometry. Transglutaminase protein expression was measured in a similar mmaner, using stacking, sample and running buffers containing 4 M urea, and the gels following electrophoresis were washed in 4 M urea, 25 mM TRIS-HCl, pH 7.4, 7.5 mM NaCl, 0.1 mM dithiothreitol (DTT), and 2 mM ethylenediamine tetraacetic acid for 90 minutes prior to electoblotting, allowing the transglutaminase to be detected by antibody. Specific bands on the autoradiograms were quantified by densitometry.

SMILES	effect on TEWL / barrier function ([1]; two days)	EC50 [1]	concentration of maximal effect on barrier development (TEWL) [1]	also measured
CC(C)CC[C@H](O)[C@@H](C)[C@H]1CC[C@H]2[C@@H]3CC=C4C[C@@H](O)CC[C@]4(C)[C@H]3CC[C@]12C [22(S)-hydroxycholesterol]				transglutaminase (TG'ase) mRNA level compared to the vehicle alone (transglutaminase mRNA): No effect; involucrin (INV) mRNA level compared to the vehicle alone (involucrin mRNA): No effect
CC(C)=CCC/C(C)=C\CC/C(C)=C\CO [cis-farnesol]	neither mevalonate at 200 μM, 25-hydroxy cholesterol at 50 μM), squalene at 50 μM, geranylgeraniol at 50 μM, cis-farnesol at 50 μM, nor nerolidol at 100 μM significantly affected barrier function			
CC(C)=CCC/C(C)=C/CC/C(C)=C/CO [farnesol, 3,7,11,trimethyl-2,6,10-dodecatrienol]	markedly decreased the TEWL	~20 µM	approximately 50 μM	light microscopy of the epidermis ([2]; 50 μM): had both a multi-layered stratum granulosum and a stratum corneum; rate of cornified envelope formation [3]: substantial increases in the rate of cornified envelope formation; involucrin protein content (involucrin protein): substantial increases in involucrin protein content
CC(C)=CCC/C(C)=C/CC/C(C)=C/CC/C(C)=C/CO [geranylgeraniol]	neither mevalonate at 200 μM, 25-hydroxy cholesterol at 50 μM), squalene at 50 μM, geranylgeraniol at 50 μM, cis-farnesol at 50 μM, nor nerolidol at 100 μM significantly affected barrier function			
CCCCC/C=C\C/C=C\CCCCCCCC(=O)O [linoleic acid]		~12.5 µM	approximately 30 μM	light microscopy of the epidermis ([2]; 30 μM): had both a multi-layered stratum granulosum and a stratum corneum; effect on TEWL ([1]; explants incubated in 300 μM for two days, p<0.005, n=8): markedly decreased the TEWL
C=CC(C)(O)CCC=C(C)CCC=C(C)C (centres unmarked) [nerolidol]				effect on TEWL / barrier formation ([1]; 100 μM, two days): neither mevalonate at 200 μM, 25-hydroxy cholesterol at 50 μM), squalene at 50 μM, geranylgeraniol at 50 μM, cis-farnesol at 50 μM, nor nerolidol at 100 μM significantly affected barrier function
CCCCCCCC/C=C\CCCCCCCC(=O)O [oleic acid]		~250 µM	approximately 500 μM	light microscopy of the epidermis ([2]; 300 μM): had both a multi-layered stratum granulosum and a stratum corneum
CCCCC[C@H](O)/C=C/[C@H]1C(=O)C=C[C@@H]1C/C=C\CCCC(=O)O [prostaglandin J2]				effect on TEWL / barrier development ([1]; 10 μM, two days): had no effect
CC(C)=CCC/C(C)=C/CC/C(C)=C/CC/C=C(\C)CC/C=C(\C)CCC=C(C)C [squalene]	neither mevalonate at 200 μM, 25-hydroxy cholesterol at 50 μM), squalene at 50 μM, geranylgeraniol at 50 μM, cis-farnesol at 50 μM, nor nerolidol at 100 μM significantly affected barrier function			
